Laboratory results as given in US20080300221A1, “Contact Lens Care Composition” (priority 2005, published 2008).

Tests used:
cysts of A. castellani = assay: Susceptibility test for Acanthamoeba cysts (viable cells on non-nutrient agar plates after soaking in contact lens solution); assay type: cell-based, A. castellanii; set-up: key: +: viable cells; −: no viable cells; settings: after 8 hours soaking; 10^3 cysts; plates incubated at 30° C. for 14 days; Miltefosine alone tested at 80 μM
Procedure: The activity of various multi-purpose contact lens solutions (for cleaning, rinsing, storing and disinfecting a contact lens while the lens is not worn) was tested against cysts of A. castellani.
Contact lens disinfection solutions tested (Table 1) were purchased from local retail stores. In case of the H2O2 based systems, neutralization of the 3% hydrogen peroxide is achieved within 6 hours by a catalytic platinum disk which is located in the contact lens storage case according to the manufacturer's instructions. Miltefosine was dissolved in 5% Ethanol (2 mM stock solution) and tested at 80 μM in Acanthamoeba medium (PYG) or in contact lens disinfection medium.
A. castellanii, was isolated from a patient suffering from a severe Acanthamoeba keratitis. Isolation was achieved by inoculating corneal epithelium onto non-nutrient agar plates covered with a 48-h-old culture of Escherichia coli. The isolate was cloned by transferring a single cyst onto a fresh plate with a micromanipulator. Axenisation was achieved by harvesting cysts from parallel cultures and incubating them in 3% HCl overnight in order to eliminate coexisting bacteria. […] The cysts were harvested by centrifugation (500 g/7 minutes), resuspended in sterile 0.9% NaCl and counted in a BurkerTurk haemocytometer. […]

Acanthamoeba = settings: cited from earlier work

Compound	Viable Acanthamoeba cells after disinfection with commercially available disinfectants (cysts of A. castellani)	Effectiveness against Acanthamoeba among contact lens disinfectants (Acanthamoeba)
CCCCCCCCCCCCCCCCOP(=O)([O-])OCC[N+](C)(C)C [Miltefosine, 1-hexadecylphosphorylcholine]	−	
[H]/N=C(\N/C(=N/[H])NCCCCCCNC(=N)NC(=N)Nc1ccc(Cl)cc1)Nc1ccc(Cl)cc1 [chlorhexidine]		most effective
